Holding throughout (type): cell-based
For assay [1], the system named is E. coli ATCC 25922 (NB27001). The assay is described as follows: MIC, broth microdilution (CLSI). Particulars: Escherichia coli, ATCC25922; E. coli ATCC 25922; 35° C., 20 hours; read-out: Antibacterial activity (MIC) NB27001. In general terms: Dilution methods test growth across graded concentrations, often in twofold steps.
Assay [2] has as its system P. aeruginosa NB52023 (efflux deficient K1542, ΔmexX ΔmexB). The assay is described as follows: microbe, parasite or virus in culture. Particulars: Pseudomonas aeruginosa, 20 h, read-out: Antibacterial activity (MIC) NB52023.
Assay [3] relates to S. aureus NB01006-AVR005 (gyrA S84L, grlA S80F, grlB E471K). In words: microbe, parasite or virus in culture. Particulars: Staphylococcus aureus, 20 h, read-out: Antibacterial activity (MIC) NB01006-AVR005.
Assay [4] concerns E. coli NB27177 (efflux deficient CGSC 11430, ΔtolC732::kan). In words: microbe, parasite or virus in culture. Particulars: Escherichia coli, 20 h, read-out: Antibacterial activity (MIC) NB27177.
The test system of assay [5] is P. aeruginosa NB52019 (wild-type PAO1). In words: MIC, broth microdilution (CLSI). Particulars: Pseudomonas aeruginosa, read-out: Antibacterial activity (MIC) NB52019.
Assay [6] concerns S. aureus ATCC 29213 (NB01001). The assay is described as follows: MIC, broth microdilution (CLSI). The conditions noted are these: Staphylococcus aureus, ATCC29213; S. aureus ATCC 29213; 35° C., 20 hours; read-out: Antibacterial activity (MIC) NB01001.
Assay [7] has as its system P. aeruginosa NB52023-CDK0006 (gyrA T83I, parC S87L). In words: microbe, parasite or virus in culture. Particulars: Pseudomonas aeruginosa, 20 h, read-out: Antibacterial activity (MIC) NB52023-CDK0006.
Where [8] appears, read: P. aeruginosa wild-type PAO1, 35° C., 20 hours.

Converted amounts (≈) assume the structure as drawn. Structures can show the parent of a compound that is named as a salt. Where two headings read alike, the source gives them in different places. Some results are limits rather than exact numbers.

The values below come from patent US10160726B2, “Quinolone derivatives as antibacterials” (priority 2014, dated 2018).

As to `COc1cc2cc(F)c(-c3ccc(N)nc3)c(C)c2n(C2CC2)c1=O` [Example 7, 7-(6-aminopyridin-3-yl)-1-cyclopropyl-6-fluoro-3-methoxy-8-methylquinolin-2(1H)-one], the MIC in assay [1] is 32 µg/mL (≈ 94.3 µM); in assay [2] it was more than 32 µg/mL; in assay [3], 4 µg/mL (≈ 11.8 µM); in assay [4], 0.25 µg/mL (≈ 0.737 µM); in assay [5] (PAO1, 20 h), more than 32 µg/mL; in assay [6] it was 2 µg/mL (≈ 5.89 µM). Further, the MIC in assay [7] was more than 32 µg/mL.
As to `Cc1c(N2CCC(CN)C2)c(F)c(C#N)c2ccc(=O)n(C3CC3)c12.O=C(O)C(F)(F)F` (centres unmarked) [Example 99, 7-(3-(aminomethyl)pyrrolidin-1-yl)-1-cyclopropyl-6-fluoro-8-methyl-2-oxo-1,2-dihydroquinoline-5-carbonitrile TFA salt], the MIC is 4 µg/mL in assay [1]; 2 µg/mL in assay [2]; 0.06 µg/mL in assay [3]; 0.125 µg/mL in assay [4]; more than 32 µg/mL in assay [5] (setting [8]); 0.125 µg/mL in assay [6]. The MIC in assay [7] turned out to be 4 µg/mL.
For `Cc1c(N2CC3CC3(N)C2)c(F)cc2c(CN)cc(=O)n(C3CC3)c12` (centres unmarked) [Example 81.23, 7-(1-amino-3-azabicyclo[3.1.0]hexan-3-yl)-4-(aminomethyl)-1-cyclopropyl-6-fluoro-8-methylquinolin-2(1H)-one], the MIC in assay [1] came out at 0.25 µg/mL (≈ 0.73 µM); in assay [2], 0.5 µg/mL (≈ 1.46 µM); in assay [3], 0.5 µg/mL (≈ 1.46 µM); in assay [4], 0.06 µg/mL (≈ 0.175 µM); in assay [5] (PAO1, 20 h), 4 µg/mL (≈ 11.7 µM); in assay [6] it was 0.5 µg/mL (≈ 1.46 µM). Moreover, the MIC in assay [7] turned out to be 1 µg/mL (≈ 2.92 µM).
For the compound `Cc1c(-c2ccc(N)nc2)ccc2cc(O)c(=O)n(C3CC3)c12` [Example 77, 7-(6-Aminopyridin-3-yl)-1-cyclopropyl-3-hydroxy-8-methylquinolin-2(1H)-one TFA salt], the MIC in assay [1] was 32 µg/mL; in assay [2], more than 32 µg/mL; in assay [3], 32 µg/mL; in assay [4], 0.5 µg/mL; in assay [5] (PAO1, 20 h), more than 32 µg/mL; in assay [6], 4 µg/mL. Moreover, in assay [7], the MIC was more than 32 µg/mL.
Turning to `Cc1c(N2CC[C@@H]([C@H](C)N)C2)c(F)cc2c(OCC(N)=O)cc(=O)n(C3CC3)c12` [Example 56, 2-((7-((R)-3-((S)-1-aminoethyl)pyrrolidin-1-yl)-1-cyclopropyl-6-fluoro-8-methyl-2-oxo-1,2-dihydroquinolin-4-yl)oxy)acetamide], the MIC in assay [1] was 32 µg/mL (≈ 79.5 µM); in assay [2] it was 16 µg/mL (≈ 39.8 µM); in assay [3] it was 4 µg/mL (≈ 9.94 µM); in assay [4], 2 µg/mL (≈ 4.97 µM); in assay [5] (PAO1, 20 h), more than 32 µg/mL; in assay [6], 4 µg/mL (≈ 9.94 µM). In assay [7], the MIC is more than 32 µg/mL.
On to `Cc1c(N2CC[C@H](O)C2)c(F)c(F)c2c(CN3CCN(C)CC3)cc(=O)n(C3CC3)c12` [Example 90, (S)-1-cyclopropyl-5,6-difluoro-7-(3-hydroxypyrrolidin-1-yl)-8-methyl-4-((4-methylpiperazin-1-yl)methyl)quinolin-2(1H)-one trifluoro acetic acid], for which the MIC in assay [1] was 16 µg/mL (≈ 37 µM); in assay [2], 32 µg/mL (≈ 74 µM); in assay [3], 0.125 µg/mL (≈ 0.289 µM); in assay [5] (PAO1, 20 h) it was more than 32 µg/mL; in assay [6] it was 0.125 µg/mL (≈ 0.289 µM); in assay [7] it was 32 µg/mL (≈ 74 µM).
For the compound `Cc1c(N2CCC(F)(CN)C2)c(F)cc2cc(CO)c(=O)n(C3CC3)c12` (centres unmarked) [Example 96, 7-(3-(aminomethyl)-3-fluoropyrrolidin-1-yl)-1-cyclopropyl-6-fluoro-3-(hydroxymethyl)-8-methylquinolin-2(1H)-one], the MIC is 2 µg/mL (≈ 5.5 µM) in assay [1]; 8 µg/mL (≈ 22 µM) in assay [2]; 1 µg/mL (≈ 2.75 µM) in assay [3]; 32 µg/mL (≈ 88.1 µM) in assay [5] (PAO1, 20 h); 0.5 µg/mL (≈ 1.38 µM) in assay [6]; 8 µg/mL (≈ 22 µM) in assay [7].
For the compound `COc1c(N2CCC(CN)C2)c(F)cc2ccc(=O)n(C3CC3)c12.O=C(O)C(F)(F)F` (centres unmarked) [Example 110, 7-(3-(aminomethyl)pyrrolidin-1-yl)-1-cyclopropyl-6-fluoro-8-methoxyquinolin-2(1H)-one TFA salt], the MIC in assay [1] is 4 µg/mL; in assay [2], 16 µg/mL; in assay [3] it was 0.125 µg/mL; in assay [5] (setting [8]), more than 32 µg/mL; in assay [6], 0.25 µg/mL; in assay [7], 32 µg/mL.
